Data from ChEMBL document CHEMBL1201862, “PubChem BioAssay data set” (2004).
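Method: 48-hour compound exposure of cells in 96-well plates, five concentrations, linear interpolation of endpoints. GI50 is the concentration that inhibits growth by half.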 The source made the active and inactive calls. No stated cut-off is given here; in the data, active = GI50 up to about 1.1 µM and inactive = higher.

Tests used:
Experiment in all cases: NCI-60 cell line screen, 48 h
OVCAR-8 = system: OVCAR-8
PC-3 = system: PC-3
KM12 = system: KM12
HT-29 = system: HT-29
EKVX = system: EKVX
K562 = system: K562
OVCAR-5 = system: OVCAR-5
SK-MEL-2 = system: SK-MEL-2
M14 = system: M14
OVCAR-4 = system: OVCAR-4
SK-MEL-5 = system: SK-MEL-5
HOP-62 = system: HOP-62
UACC-257 = system: UACC-257
SR = system: SR
DU-145 = system: DU-145
HCC 2998 = system: HCC 2998
COLO 205 = system: COLO 205
SW-620 = system: SW-620
A549 = system: A549
SF-295 = system: SF-295

Compound	GI50 (OVCAR-8)	GI50 (PC-3)	GI50 (KM12)	GI50 (HT-29)	GI50 (EKVX)	GI50 (K562)	GI50 (OVCAR-5)	GI50 (SK-MEL-2)	GI50 (M14)	GI50 (OVCAR-4)	GI50 (SK-MEL-5)	GI50 (HOP-62)	GI50 (UACC-257)	GI50 (SR)	GI50 (DU-145)	GI50 (HCC 2998)	GI50 (COLO 205)	GI50 (SW-620)	GI50 (A549)	GI50 (SF-295)
COc1c(O)ccc2c1CN1CCc3cc4c(cc3C1C2)OCO4 (configuration not stated)	33.9 µM (inactive)	23.4 µM (inactive)	22.1 µM (inactive)	32.7 µM (inactive)	47.8 µM (inactive)	20 µM (inactive)	> 65.5 µM (inactive)	30.6 µM (inactive)	34.8 µM (inactive)	23.1 µM (inactive)	35 µM (inactive)	36.4 µM (inactive)	31 µM (inactive)	0.441 µM (active)	21.8 µM (inactive)	31.6 µM (inactive)	36.1 µM (inactive)	29.9 µM (inactive)	32.5 µM (inactive)	29.7 µM (inactive)
CSC(=S)Nc1cccc(C)n1	> 100 µM (inactive)	> 100 µM (inactive)	> 100 µM (inactive)	> 100 µM (inactive)	> 100 µM (inactive)	> 100 µM (inactive)	> 100 µM (inactive)	> 100 µM (inactive)	> 100 µM (inactive)	> 100 µM (inactive)	76.6 µM (inactive)	> 100 µM (inactive)	> 100 µM (inactive)	> 100 µM (inactive)	> 100 µM (inactive)	> 100 µM (inactive)	> 100 µM (inactive)	> 100 µM (inactive)	> 100 µM (inactive)	> 100 µM (inactive)
O=C(CN1CCCCC1)CC(O)(C(F)(F)F)C(F)(F)F	> 100 µM (inactive)	> 100 µM (inactive)	> 100 µM (inactive)	> 100 µM (inactive)	> 100 µM (inactive)	> 100 µM (inactive)	> 100 µM (inactive)	> 100 µM (inactive)	> 100 µM (inactive)	> 100 µM (inactive)	> 100 µM (inactive)		> 100 µM (inactive)	> 100 µM (inactive)	> 100 µM (inactive)	> 100 µM (inactive)	> 100 µM (inactive)	> 100 µM (inactive)	> 100 µM (inactive)	> 100 µM (inactive)
C/C=C/[C@@H]1[C@H]2C(=O)[C@]3(Cl)[C@@H](/C=C/C)[C@@H]3C(=O)[C@@]12Cl	> 100 µM (inactive)	> 100 µM (inactive)	> 100 µM (inactive)	> 100 µM (inactive)	> 100 µM (inactive)	> 100 µM (inactive)	> 100 µM (inactive)	> 100 µM (inactive)	> 100 µM (inactive)	> 100 µM (inactive)	> 100 µM (inactive)	33.7 µM (inactive)	> 100 µM (inactive)	> 100 µM (inactive)	> 100 µM (inactive)	> 100 µM (inactive)	> 100 µM (inactive)	> 100 µM (inactive)	> 100 µM (inactive)	> 100 µM (inactive)
Cc1ccc(NNc2cc(=O)[nH]c(=O)[nH]2)cc1Cl		22.3 µM (inactive)	27.3 µM (inactive)	15 µM (inactive)		2.99 µM (inactive)	73.8 µM (inactive)	16.5 µM (inactive)	13.7 µM (inactive)	14.7 µM (inactive)	73.5 µM (inactive)	71.9 µM (inactive)	17.5 µM (inactive)	12.1 µM (inactive)	37 µM (inactive)	15.7 µM (inactive)	16.6 µM (inactive)	14.4 µM (inactive)	29 µM (inactive)	37.5 µM (inactive)
COc1ccc(OC)c(CNc2ccc(C(=O)O)cc2)c1	> 100 µM (inactive)	> 100 µM (inactive)	> 100 µM (inactive)	> 100 µM (inactive)	> 100 µM (inactive)	> 100 µM (inactive)	> 100 µM (inactive)	> 100 µM (inactive)	> 100 µM (inactive)	> 100 µM (inactive)	> 100 µM (inactive)		> 100 µM (inactive)	> 100 µM (inactive)	> 100 µM (inactive)	> 100 µM (inactive)	> 100 µM (inactive)	> 100 µM (inactive)	> 100 µM (inactive)	
Nc1nc(S)c2c(N)n[nH]c2c1C(=O)Nc1ccccc1	> 100 µM (inactive)	> 100 µM (inactive)	65.5 µM (inactive)	> 100 µM (inactive)	26.5 µM (inactive)	> 100 µM (inactive)	> 100 µM (inactive)	> 100 µM (inactive)	> 100 µM (inactive)	> 100 µM (inactive)	> 100 µM (inactive)		> 100 µM (inactive)	13.9 µM (inactive)	> 100 µM (inactive)	> 100 µM (inactive)	> 100 µM (inactive)	> 100 µM (inactive)	> 100 µM (inactive)	
CC1=C2C(=O)c3ccccc3C(=O)[C@H]2[C@H]2CCO[C@H]2O1	20.4 µM (inactive)	30.3 µM (inactive)	24.5 µM (inactive)	31.2 µM (inactive)	30.5 µM (inactive)	27.4 µM (inactive)	23.7 µM (inactive)	18.8 µM (inactive)	20.6 µM (inactive)	19.5 µM (inactive)	15.6 µM (inactive)	21.3 µM (inactive)	18.5 µM (inactive)	35.2 µM (inactive)	22.3 µM (inactive)	19.4 µM (inactive)	42.2 µM (inactive)	21.1 µM (inactive)	32.2 µM (inactive)	23 µM (inactive)
CC1CC(C#N)=C2NCCN2C1=O (configuration not stated)	> 100 µM (inactive)	> 100 µM (inactive)	> 100 µM (inactive)	> 100 µM (inactive)	> 100 µM (inactive)	> 100 µM (inactive)		> 100 µM (inactive)	19.4 µM (inactive)	> 100 µM (inactive)	15.2 µM (inactive)	> 100 µM (inactive)	78 µM (inactive)	> 100 µM (inactive)	> 100 µM (inactive)	> 100 µM (inactive)	22.1 µM (inactive)	31.9 µM (inactive)	> 100 µM (inactive)	> 100 µM (inactive)
O=C1c2cccnc2S(=O)(=O)N1c1ccc(Oc2ccccc2)cc1	> 100 µM (inactive)	72.3 µM (inactive)	> 100 µM (inactive)	> 100 µM (inactive)	> 100 µM (inactive)	> 100 µM (inactive)	> 100 µM (inactive)	> 100 µM (inactive)	> 100 µM (inactive)	> 100 µM (inactive)		> 100 µM (inactive)	92.7 µM (inactive)	80 µM (inactive)	> 100 µM (inactive)	> 100 µM (inactive)	> 100 µM (inactive)	> 100 µM (inactive)	91.8 µM (inactive)	> 100 µM (inactive)
COC(=O)c1cncc2c1CC1C3(C(=O)OC)C=NC(C4C(CO)=CCC43)C21C (configuration not stated)	> 100 µM (inactive)	> 100 µM (inactive)	> 100 µM (inactive)	> 100 µM (inactive)	> 100 µM (inactive)		> 100 µM (inactive)	> 100 µM (inactive)	> 100 µM (inactive)	> 100 µM (inactive)	> 100 µM (inactive)	> 100 µM (inactive)	> 100 µM (inactive)	> 100 µM (inactive)	> 100 µM (inactive)	> 100 µM (inactive)	> 100 µM (inactive)	> 100 µM (inactive)	> 100 µM (inactive)	> 100 µM (inactive)
Cc1csc2[n+]1C(=O)/C(=C\c1ccc([N+](=O)[O-])cc1)S2	22.4 µM (inactive)	25.4 µM (inactive)	20.5 µM (inactive)	23.9 µM (inactive)		26.8 µM (inactive)	47.2 µM (inactive)	25.6 µM (inactive)	34 µM (inactive)	42.3 µM (inactive)	26.2 µM (inactive)	28.5 µM (inactive)	29.9 µM (inactive)	32.5 µM (inactive)	39 µM (inactive)	21.6 µM (inactive)	19.7 µM (inactive)	40.8 µM (inactive)	27.4 µM (inactive)	23.9 µM (inactive)
O=C1/C(=C/c2ccccc2)N=C(c2ccccc2)N1C1Nc2cc3c(cc2S1)NC(N1C(=O)/C(=C/c2ccccc2)N=C1c1ccccc1)S3 (configuration not stated)	4.33 µM (inactive)	11.8 µM (inactive)	6.87 µM (inactive)	5.01 µM (inactive)	95.7 µM (inactive)	10 µM (inactive)	64 µM (inactive)	23.6 µM (inactive)	9.51 µM (inactive)	51.1 µM (inactive)	30.3 µM (inactive)	16.9 µM (inactive)	3.78 µM (inactive)	5.28 µM (inactive)	46.6 µM (inactive)	2.04 µM (inactive)		3.8 µM (inactive)		> 100 µM (inactive)
CC(C)Cc1cc2c(cc1O)CCC1C2CC[C@@]2(C)C1CC[C@@H]2O (some centres not stated)	6.35 µM (inactive)	6.35 µM (inactive)	6.55 µM (inactive)	8.02 µM (inactive)	8.69 µM (inactive)	3.83 µM (inactive)	16.1 µM (inactive)	6.71 µM (inactive)	7.87 µM (inactive)	8.97 µM (inactive)	7.45 µM (inactive)	11.6 µM (inactive)	14.3 µM (inactive)	3.85 µM (inactive)	9.2 µM (inactive)	13.1 µM (inactive)	15.2 µM (inactive)	8.65 µM (inactive)	6.84 µM (inactive)	4.09 µM (inactive)
